{"source": "patent US20210300921A1", "about": "“EP4 INHIBITORS AND SYNTHESIS THEREOF” (Arrys Therapeutics, Inc., priority 2018, published 2021)", "format_in_all_cases": "in vivo, BALB/c mice", "key": {"[1]": {"tested_on": "CT-26 mouse colon adenocarcinoma model", "experiment": "Antitumor activity in the CT-26 mouse colon adenocarcinoma model, additional experiment (7 mice per cohort)", "details": "FIG. 5", "protocol": "(§1) The antitumor activity of Compound X as a single agent and combined with a mouse anti-PD1 antibody was evaluated in the CT-26 mouse colon adenocarcinoma model grown in BALB/c mice in an additional experiment. Mice were inoculated subcutaneously in the right flank with 5×10^5 tumor cells. When tumors reached an average size of 91 mm^3 dosing was initiated. The dosing regimens in the 4 separate cohorts comprising 7 mice each are as follows: […]"}, "[2]": {"tested_on": "CT-26 mouse colon adenocarcinoma model", "experiment": "Antitumor activity in the CT-26 mouse colon adenocarcinoma model, Compound X with or without anti-PD-1 (10 mice per cohort)", "details": "for tumor growth kinetics during the treatment period: versus single agent anti-PD-1; for tumor growth kinetics during the period of dosing: versus vehicle", "protocol": "as §1, with “anti-PD-1” for “anti-PD1”, “mice.” for “mice in an additional experiment.”, “71” for “91”, “mm^3 (6 days after tumor cell inoculation)” for “mm^3”, “8” for “4”, “10” for “7”"}, "[3]": {"tested_on": "4T1 mouse breast cancer model", "experiment": "Antitumor activity in the 4T1 mouse breast cancer model, additional experiment with anti-PD1 (7 mice per cohort)", "details": "FIG. 6", "protocol": "as §1, with “4T1” for “CT-26”, “breast cancer” for “colon adenocarcinoma”, “3×10^5” for “5×10^5”, “97” for “91”"}, "CT-26 tumors": {"tested_on": "CT-26 tumors", "experiment": "Immune cell composition of CT-26 tumors by flow cytometry after 7 days of dosing", "details": "for percentage of dendritic cells (CD45, CD11c positive) in tumors: FIG. 7b; for regulatory T cells (CD45, CD4, FoxP3, CD25 positive) in tumors: versus vehicle, FIG. 7a; for percentage of activated T cells (CD45, CD3, CD8) by CD25 expression in tumors: FIG. 7c", "protocol": "The immune cell composition of Compound X (the compound as described in Example 15, above) as a single agent and combined with a mouse anti-PD1 antibody was evaluated in the CT-26 mouse colon adenocarcinoma model grown in BALB/c mice. Mice were inoculated subcutaneously in the right flank with 5×10^5 tumor cells. When tumors reached an average size of 85 mm^3 dosing was initiated. The dosing regimens in the 4 separate cohorts comprising 10 mice each are listed as follows:\nAfter dosing animals for 7 days, tumors were resected and used to prepare single cell suspensions. Live cells representing tumor and immune cells were stained with cocktails of antibodies targeting multiple immune cell markers (anti-CD45, anti-CD3, anti-CD4, anti-CD8, anti-CD25, anti-FoxP3, anti-PD-1, anti-CD11c) conjugated to different fluorescent tags. The stained cells were fixed in 4% paraformaldehyde and quantified using a multi-color flow cytometer (Fortessa). The data was analyzed with FloJo software."}, "[4]": {"tested_on": "4T1 mouse breast cancer model", "experiment": "Antitumor activity in the 4T1 mouse breast cancer model, Compound X with or without anti-CTLA4", "details": "for tumor growth kinetics during the period of dosing: FIG. 3", "protocol": "The antitumor activity of Compound X (the compound as described in Example 15, above) as a single agent and combined with a mouse anti-CTLA4 antibody was evaluated in the 4T1 mouse breast cancer model grown in BALB/c mice. Mice were inoculated subcutaneously in the right flank with 3×10^5 tumor cells. When tumors reached an average size of 100 mm^3 (7 days after tumor cell inoculation) dosing was initiated."}, "[5]": {"details": "single agent: Compound X 15 mg/kg BID x7 days po or anti-PD-1 10 mg/kg Q3D x3 ip"}, "[6]": {"details": "Compound X 15 mg/kg BID in combination with anti-CTLA4"}}}
{"compound": "C[C@H](NC(=O)c1cc(Cl)cnc1Oc1cccc(F)c1)c1ccc(C(=O)O)cc1", "note": "[Compound X]", "values": [{"measurement": "tumor growth kinetics during the period of dosing", "setting": "[1]; Compound X 15 mg/kg BID combined with anti-PD1 10 mg/kg BIW ip, versus single agents", "value": "lower than mice treated with either single agent"}, {"measurement": "tumor growth kinetics during the period of dosing", "setting": "[1]; single agent: Compound X 15 mg/kg BID po or anti-PD1 10 mg/kg BIW ip, versus vehicle", "value": "less than that of the vehicle group"}, {"measurement": "mice still alive 99 days after tumor inoculation", "setting": "[2]; Compound X 15 mg/kg BID in combination with anti-PD-1", "value": "5 out of 10"}, {"measurement": "growth kinetics after treatment was discontinued", "setting": "[2]; Compound X 15 mg/kg BID in combination with anti-PD-1, FIG. 1", "value": "decreased growth kinetics relative to anti-PD-1"}, {"measurement": "survival after treatment was discontinued", "setting": "[2]; Compound X 15 mg/kg BID in combination with anti-PD-1, FIG. 2", "value": "improved survival"}, {"measurement": "tumor free mice 99 days after tumor inoculation", "setting": "[2]; Compound X 15 mg/kg BID in combination with anti-PD-1, of 10 mice", "value": 4}, {"measurement": "tumor growth kinetics during the treatment period", "setting": "[2]; Compound X 15 mg/kg BID p.o. combined with anti-PD-1 10 mg/kg i.p.", "value": "not notably different mice treated with single agent anti-PD-1"}, {"measurement": "tumor growth kinetics during the period of dosing", "setting": "[2]; Compound X 15 mg/kg BID p.o., single agent, FIG. 1", "value": "not notably different from the vehicle treated mice"}, {"measurement": "tumor growth kinetics during the treatment period", "setting": "[2]; Compound X 15 mg/kg QD p.o. combined with anti-PD-1 10 mg/kg i.p.", "value": "not notably different mice treated with single agent anti-PD-1"}, {"measurement": "tumor growth kinetics during the period of dosing", "setting": "[2]; Compound X 15 mg/kg QD p.o., single agent, FIG. 1", "value": "not notably different from the vehicle treated mice"}, {"measurement": "mice still alive and tumor free 99 days after tumor inoculation", "setting": "[2]; single agent", "value": "1 out of 10"}, {"measurement": "tumor growth kinetics during the period of dosing", "setting": "[3]; Compound X 15 mg/kg BID combined with anti-PD1 10 mg/kg BIW ip", "value": "lower than mice treated with either single agent"}, {"measurement": "tumor growth kinetics during the period of dosing", "setting": "[3]; Compound X 15 mg/kg BID po, single agent", "value": "less than that of the vehicle group and anti-PD1 when dosed alone"}, {"measurement": "percentage of dendritic cells (CD45, CD11c positive) in tumors", "setting": "CT-26 tumors; Compound X 15 mg/kg BID dosed with anti-PD-1 10 mg/kg Q3D", "value": "increased percentage"}, {"measurement": "regulatory T cells (CD45, CD4, FoxP3, CD25 positive) in tumors", "setting": "CT-26 tumors; combination of Compound X 15 mg/kg BID and anti-PD-1 10 mg/kg Q3D", "value": "significant decrease"}, {"measurement": "percentage of activated T cells (CD45, CD3, CD8) by CD25 expression in tumors", "setting": "CT-26 tumors; combination of Compound X 15 mg/kg BID with anti-PD-1 10 mg/kg Q3D", "value": "increased percentage"}, {"measurement": "percentage of activated T cells (CD45, CD3, CD8) by CD25 expression in tumors", "setting": "CT-26 tumors; either agent dosed alone", "value": "did not"}, {"measurement": "percentage of dendritic cells (CD45, CD11c positive) in tumors", "setting": "CT-26 tumors; [5]", "value": "increased percentage"}, {"measurement": "regulatory T cells (CD45, CD4, FoxP3, CD25 positive) in tumors", "setting": "CT-26 tumors; [5]", "value": "significant decrease"}, {"measurement": "mice still alive 47 days after tumor inoculation", "setting": "[4]; [6]", "value": "7 of 10"}, {"measurement": "mice still alive at the end of the study 55 days after tumor inoculation", "setting": "[4]; [6]", "value": "3 of 10"}, {"measurement": "survival rate after treatment was discontinued", "setting": "[4]; Compound X 15 mg/kg BID in combination with anti-CTLA4, FIG. 4", "value": "improved survival rate relative to either single agent alone"}, {"measurement": "tumor growth kinetics during the period of dosing", "setting": "[4]; Compound X and anti-CTLA4 combined, versus either agent alone", "value": "decreased relative to either agent when dosed alone"}, {"measurement": "mice alive 47 days after tumor inoculation", "setting": "[4]; single agent alone", "value": "none"}, {"measurement": "tumor growth kinetics during the period of dosing", "setting": "[4]; single agent: Compound X 15 mg/kg BID or anti-CTLA4, versus vehicle", "value": "decreased relative to the vehicle treated mice"}]}
